This is an account of results in paper doi:10.1101/2023.08.31.555663, “Computational exploration of the global microbiome for antibiotic discovery” (bioRxiv, 2023).

For assay [1], the system named is A. baumannii ATCC 19606. Description: Skin abscess infection mouse model. Type of assay: in vivo. The conditions noted are these: CD-1 mice, n=3. The procedure: Figure 7. Anti-infective activity of AMPs in pre-clinical animal model. (A) Schematic of the skin abscess mouse model used to assess the anti-infective activity of the peptides against A. baumannii cells. (B) Peptides were tested at their MIC in a single dose one hour after the establishment of the infection. Each group consisted of three mice n=3 and the bacterial loads used to infect each mouse derived from a different inoculum. (C) To rule out toxic effects of the peptides, mouse weight was monitored throughout the experiment. Statistical significance in (B) was determined using one-way ANOVA where all groups were compared to the untreated control group; P-values are shown for each of the groups. Features on the violin plots represent median and upper and lower quartiles. Data in (C) are the mean ± the standard deviation. Figure created in BioRender.com. […]
To assess the anti-infective efficacy of the peptides against A. baumannii ATCC 19606 in a skin abscess infection mouse model, the bacteria were cultured in tryptic soy broth (TSB) medium until an OD600 of 0.5 was reached. […] The animals were euthanized two- and four-days post-infection, and the infected area was extracted and homogenized for 20 min using a bead beater (25 Hz) and 10-fold serially diluted for CFU quantification on MacConkey agar plates for easy differentiation of A. baumannii colonies. […]

Assay [2] relates to Acinetobacter baumannii ATCC 19606. The conditions noted are these: broth microdilution, LB broth, 24 h at 37 °C, two-fold dilutions 64 to 1 μmol·L^−1, absorbance 600 nm, mode of three independent replicates.
Description: Amino acid composition, structure, antimicrobial activity, and mechanism of action of c_AMPs. […] (AC) Activity of c_AMPs assessed against ESKAPEE pathogens and human gut commensal strains. Briefly, 10^6 CFU·mL^−1 was exposed to c_AMPs two-fold serially diluted ranging from 64 to 1 μmol·L^−1 in 96-wells plates and incubated at 37 °C for one day. After the exposure period, the absorbance of each well was measured at 600 nm. Untreated solutions were used as controls and minimal concentration values for complete inhibition were presented as a heat map of antimicrobial activities (μmol·L^−1) against 11 pathogenic and eight human gut commensal bacterial strains.

Where a SMILES comes first, the peptide text is derived from it. Bridges are numbered along the chain shown (N, C = ends). [ ]: non-standard residue; d: D form. The star is where a group is joined. X1 = CC[C@H](C)CCCCC(=O)*; Dab = NCC[C@H](N)C(=O)O

For `CC[C@H](C)CCCCC(=O)N[C@@H](CCN)C(=O)N[C@H](C(=O)N[C@@H](CCN)C(=O)N[C@H]1CCNC(=O)[C@H]([C@@H](C)O)NC(=O)[C@H](CCN)NC(=O)[C@H](CCN)NC(=O)[C@H](CC(C)C)NC(=O)[C@@H](Cc2ccccc2)NC(=O)[C@H](CCN)NC1=O)[C@@H](C)O` [polymyxin B] (X1-[Dab]T[Dab][Dab][Dab][dF]L[Dab][Dab]T; lactam 4-C (inferred); N-terminus assumed), the “Kind of anti-infective activity against A. baumannii in skin abscess” value in assay [1] (single dose at MIC on the infected area, two days post-infection) is listed as “bactericidal activity”. Further, the “Reduction of CFU counts compared to the untreated control” value in assay [1] (skin abscess, A. baumannii, single dose at MIC, four days post-infection) is recorded as 1–2 orders of magnitude. In addition, the “Minimal Inhibitory Concentration, A. baumannii ATCC 19606” value in assay [2] was determined as 0.25 µmol/L.
